Measured values: publication PMC8075810 (Cell Chemical Biology, 2021)

How the values were obtained:
SCoV2 PLpro [1] = target: T1, SCoV2 PLpro (Severe acute respiratory syndrome coronavirus 2, UniProt P0DTD1); format: cell-based, SARS-CoV-2; settings: 10 μM, western blot
SCoV2 PLpro [2] = target: T1, SCoV2 PLpro; experiment: biochemical; format: biochemical, SARS-CoV-2

Compound: C[C@H](c1cccc2ccccc12)N1CCC(C(=O)NCc2cc(F)cc(NC(=O)N3CCN(C)CC3)c2)CC1 [Inhibitor 19, (R)-N-(3-fluoro-5-((1-(1-(naphthalen-1-yl)ethyl)piperidine-4-carboxamido)methyl)phenyl)-4-methylpiperazine-1-carboxamide]
- inhibition of SCoV2 PLpro (nsp1-nsp2 cleavage) in 293T cells (SCoV2 PLpro [1]): significantly inhibited

Compound: CC(C)c1cc(C(C)C)c(CC(=O)NS(=O)(=O)Oc2c(C(C)C)cccc2C(C)C)c(C(C)C)c1 [avasimibe]
- inhibition at 10 µM (SCoV2 PLpro [2]; read-out: inhibition of SCoV2 PLpro): > 50%

Compound: O=C(O)C(=O)c1cn(Cc2ccccc2)c2ccc(-c3ccc(OC(F)(F)F)cc3)cc12 [tiplaxtinin]
- inhibition of SCoV2 PLpro (SCoV2 PLpro [2]; 10 μM compound, probe 7): over 50%

Compound: vitamin B12
- inhibition of SCoV2 PLpro (SCoV2 PLpro [2]; 10 µM): over 50%
